Source: PMC5571739 (Journal of neuro-oncology, 2016)
Several values for one entry are separate records, joined by “and”; a condition that tells them apart may be missing. Identical values can stand only once.

Tests used:
[1] = Plasma pharmacokinetics of RO4929097 alone and with bevacizumab; assay type: in vivo, human; details: for AUC24: plasma, geometric mean; for AUC24 Δ% / Cmax Δ%: day 15 with bevacizumab vs day 1 alone
[2] = tested on: patients with recurrent malignant gliomas
[3] = tested on: hepatic CYP450 enzyme system; details: cited from earlier work

| Molecule | AUC24 ([1]; 5 mg oral, day 1, no concurrent bevacizumab) | AUC24 ([1]; 5 mg oral, day 15, concurrent bevacizumab) | AUC24 Δ% ([1]; 5 mg) | AUC24 ([1]; 10 mg oral, day 1, no concurrent bevacizumab) | AUC24 Δ% ([1]; 10 mg) | Cmax Δ% ([1]; 10 mg) | AUC24 ([1]; 20 mg oral, day 1, no concurrent bevacizumab) | AUC24 ([1]; 20 mg oral, day 15, concurrent bevacizumab) | AUC24 Δ% ([1]; 20 mg) | Cmax Δ% ([1]; 20 mg) | Dose proportionality of mean Cmax ([1]; escalation of the dose from 5 to 20 mg) | Definitive maximum tolerated dose ([2]; in combination with bevacizumab, drug production halted) | Recommended phase II dose ([2]; orally 3 days on/4 days off each week in combination with bevacizumab) | Substrate or modulator of hepatic CYP450 enzyme system [3] |
| --- | --- | --- | --- | --- | --- | --- | --- | --- | --- | --- | --- | --- | --- | --- |
| CC(C)(C(=O)NCC(F)(F)C(F)(F)F)C(=O)N[C@@H]1C(=O)Nc2ccccc2-c2ccccc21 [RO4929097] | 1,215 ng●h/mL | 1,212 ng●h/mL | −0.2% | 2,385 ± 606 ng●h/mL and 2,385 ng●h/mL | −1.5% | 7.0% | 2,232 ± 781 ng●h/mL and 2,232 ng●h/mL | 2,555 ng●h/mL | 14.5% | 1.9% | increased less than proportionately | not identified | 10 mg/kg |  |
| Bevacizumab: monoclonal antibody directed against vascular endothelial growth factor |  |  |  |  |  |  |  |  |  |  |  |  |  | not a substrate or modulator |
